Laboratory results reported in paper PMC4657039 (Assay and Drug Development Technologies, 2014).

Experiments:
human Cav2.2/β3/α2δ1 [1] = biological target: T1, human Cav2.2/β3/α2δ1 (Homo sapiens, UniProt Q00975); type: cell-based
human Cav2.1/β4/α2δ1 = human Cav2.1/β4/α2δ1 (Homo sapiens, UniProt O00555); type: cell-based
human Cav1.2/β2/α2δ1 = human Cav1.2/β2/α2δ1 (Homo sapiens, UniProt Q13936)
human Cav3.2 = human Cav3.2 (Homo sapiens, UniProt O95180); type: cell-based
human Cav2.2/β3/α2δ1 [2] = biological target: T1, human Cav2.2/β3/α2δ1; assay: IonWorks Barracuda repetitive test pulse train; type: cell-based; details: Cav2.2, 30 pulse train 0.1 Hz

Sequence of human Cav1.2/β2/α2δ1 (P54289 957-1103): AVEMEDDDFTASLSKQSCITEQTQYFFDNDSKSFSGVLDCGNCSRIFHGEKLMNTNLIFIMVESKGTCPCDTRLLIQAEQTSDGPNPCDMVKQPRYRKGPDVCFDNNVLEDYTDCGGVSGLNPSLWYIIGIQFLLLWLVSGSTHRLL
Sequence of human Cav1.2/β2/α2δ1 (Q08289 whole entry, further chain): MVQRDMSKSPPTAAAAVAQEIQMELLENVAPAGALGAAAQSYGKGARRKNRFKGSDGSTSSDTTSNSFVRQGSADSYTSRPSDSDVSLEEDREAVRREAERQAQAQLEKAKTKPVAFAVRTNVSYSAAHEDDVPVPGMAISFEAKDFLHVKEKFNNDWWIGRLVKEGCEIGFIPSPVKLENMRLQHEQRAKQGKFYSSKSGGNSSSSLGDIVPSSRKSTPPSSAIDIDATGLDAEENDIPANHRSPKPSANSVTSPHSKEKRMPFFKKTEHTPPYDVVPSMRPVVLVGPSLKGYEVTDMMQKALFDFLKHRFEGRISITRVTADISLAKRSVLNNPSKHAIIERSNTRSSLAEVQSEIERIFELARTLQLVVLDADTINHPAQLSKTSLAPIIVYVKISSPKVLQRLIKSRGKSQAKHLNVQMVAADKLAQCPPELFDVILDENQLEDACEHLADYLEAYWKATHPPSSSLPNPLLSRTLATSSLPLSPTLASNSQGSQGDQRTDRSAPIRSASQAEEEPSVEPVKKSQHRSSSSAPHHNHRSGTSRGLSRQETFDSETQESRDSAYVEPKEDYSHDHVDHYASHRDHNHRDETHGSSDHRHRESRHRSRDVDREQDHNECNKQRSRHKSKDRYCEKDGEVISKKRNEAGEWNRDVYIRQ
Sequence of human Cav1.2/β2/α2δ1 (P54289 25-956): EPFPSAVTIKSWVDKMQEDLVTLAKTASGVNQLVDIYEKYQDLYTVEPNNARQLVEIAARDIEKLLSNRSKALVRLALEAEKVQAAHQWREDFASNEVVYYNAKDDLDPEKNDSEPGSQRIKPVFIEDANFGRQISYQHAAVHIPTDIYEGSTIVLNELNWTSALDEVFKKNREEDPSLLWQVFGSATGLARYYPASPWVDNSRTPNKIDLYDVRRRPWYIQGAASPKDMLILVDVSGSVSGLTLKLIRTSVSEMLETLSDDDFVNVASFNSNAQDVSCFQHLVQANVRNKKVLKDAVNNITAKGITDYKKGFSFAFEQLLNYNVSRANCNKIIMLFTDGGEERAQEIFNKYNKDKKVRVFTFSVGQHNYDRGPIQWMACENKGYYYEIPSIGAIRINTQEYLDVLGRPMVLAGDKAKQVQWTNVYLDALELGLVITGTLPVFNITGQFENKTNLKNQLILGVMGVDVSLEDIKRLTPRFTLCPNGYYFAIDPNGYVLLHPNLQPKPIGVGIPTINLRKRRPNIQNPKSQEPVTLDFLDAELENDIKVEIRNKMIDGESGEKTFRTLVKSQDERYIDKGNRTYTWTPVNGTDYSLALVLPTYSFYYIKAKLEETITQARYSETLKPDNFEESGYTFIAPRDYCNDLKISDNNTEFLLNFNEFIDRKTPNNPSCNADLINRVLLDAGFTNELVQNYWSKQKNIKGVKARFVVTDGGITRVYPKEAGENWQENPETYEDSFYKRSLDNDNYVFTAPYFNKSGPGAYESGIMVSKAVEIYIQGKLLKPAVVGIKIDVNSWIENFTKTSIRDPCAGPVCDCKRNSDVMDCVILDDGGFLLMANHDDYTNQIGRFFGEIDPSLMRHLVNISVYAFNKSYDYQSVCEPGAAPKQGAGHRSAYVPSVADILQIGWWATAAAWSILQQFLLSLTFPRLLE
Sequence of human Cav1.2/β2/α2δ1 (Q13936 whole entry): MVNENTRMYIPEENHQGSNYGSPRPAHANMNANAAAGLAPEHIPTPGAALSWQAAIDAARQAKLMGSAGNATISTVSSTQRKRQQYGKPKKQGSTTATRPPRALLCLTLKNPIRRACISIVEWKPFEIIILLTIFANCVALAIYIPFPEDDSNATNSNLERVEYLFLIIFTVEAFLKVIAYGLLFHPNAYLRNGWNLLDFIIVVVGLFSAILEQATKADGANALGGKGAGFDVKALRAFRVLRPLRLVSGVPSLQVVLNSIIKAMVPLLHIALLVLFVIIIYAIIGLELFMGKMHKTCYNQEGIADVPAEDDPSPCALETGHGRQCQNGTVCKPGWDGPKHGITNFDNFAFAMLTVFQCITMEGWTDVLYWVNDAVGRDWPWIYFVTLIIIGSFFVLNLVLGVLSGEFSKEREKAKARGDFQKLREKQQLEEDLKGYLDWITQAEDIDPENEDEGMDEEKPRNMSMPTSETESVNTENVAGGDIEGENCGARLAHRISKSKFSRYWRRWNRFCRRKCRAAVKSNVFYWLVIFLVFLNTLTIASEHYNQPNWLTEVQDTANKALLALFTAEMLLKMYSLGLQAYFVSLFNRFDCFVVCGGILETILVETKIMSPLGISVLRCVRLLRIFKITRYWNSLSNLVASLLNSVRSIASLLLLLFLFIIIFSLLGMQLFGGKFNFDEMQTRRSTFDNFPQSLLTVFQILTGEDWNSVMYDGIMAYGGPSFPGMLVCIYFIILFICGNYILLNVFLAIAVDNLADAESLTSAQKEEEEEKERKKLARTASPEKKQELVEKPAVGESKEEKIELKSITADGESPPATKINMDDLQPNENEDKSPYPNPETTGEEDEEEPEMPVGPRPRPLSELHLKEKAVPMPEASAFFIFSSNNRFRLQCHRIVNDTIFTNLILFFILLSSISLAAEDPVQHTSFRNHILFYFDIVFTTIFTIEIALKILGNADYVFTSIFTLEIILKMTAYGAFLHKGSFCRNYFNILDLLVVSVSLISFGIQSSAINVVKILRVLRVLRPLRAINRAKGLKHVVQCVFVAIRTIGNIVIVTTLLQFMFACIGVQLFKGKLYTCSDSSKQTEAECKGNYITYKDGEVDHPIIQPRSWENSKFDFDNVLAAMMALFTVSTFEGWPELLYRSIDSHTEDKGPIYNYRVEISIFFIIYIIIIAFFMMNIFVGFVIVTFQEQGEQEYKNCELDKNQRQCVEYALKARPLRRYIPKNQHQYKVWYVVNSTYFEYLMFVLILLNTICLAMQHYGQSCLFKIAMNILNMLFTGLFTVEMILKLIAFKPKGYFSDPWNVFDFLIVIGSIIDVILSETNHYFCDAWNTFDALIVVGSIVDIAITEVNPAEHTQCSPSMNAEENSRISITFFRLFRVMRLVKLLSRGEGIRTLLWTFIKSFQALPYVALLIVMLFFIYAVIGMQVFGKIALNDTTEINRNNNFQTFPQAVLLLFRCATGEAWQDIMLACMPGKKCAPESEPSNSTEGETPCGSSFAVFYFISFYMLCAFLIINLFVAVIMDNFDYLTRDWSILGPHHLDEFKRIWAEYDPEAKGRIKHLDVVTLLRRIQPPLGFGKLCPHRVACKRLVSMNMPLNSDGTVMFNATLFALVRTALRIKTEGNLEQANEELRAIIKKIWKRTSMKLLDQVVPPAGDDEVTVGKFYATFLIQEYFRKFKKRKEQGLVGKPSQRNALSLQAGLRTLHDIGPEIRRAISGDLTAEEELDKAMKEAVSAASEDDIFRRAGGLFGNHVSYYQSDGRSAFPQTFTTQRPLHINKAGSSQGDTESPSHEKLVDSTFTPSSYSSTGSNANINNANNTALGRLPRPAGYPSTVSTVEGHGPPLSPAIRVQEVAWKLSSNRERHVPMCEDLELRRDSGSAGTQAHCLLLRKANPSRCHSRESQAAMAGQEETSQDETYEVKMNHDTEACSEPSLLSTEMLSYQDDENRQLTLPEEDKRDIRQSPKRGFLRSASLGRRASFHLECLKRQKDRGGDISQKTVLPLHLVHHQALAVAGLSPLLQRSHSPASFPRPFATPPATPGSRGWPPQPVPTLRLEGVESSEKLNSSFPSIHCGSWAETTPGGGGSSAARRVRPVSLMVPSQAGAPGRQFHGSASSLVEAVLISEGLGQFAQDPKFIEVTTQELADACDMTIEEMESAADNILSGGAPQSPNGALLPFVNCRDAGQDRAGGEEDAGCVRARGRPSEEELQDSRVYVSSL

COC(=O)C1=C(C)NC(C)=C([N+](=O)[O-])[C@H]1c1ccccc1C(F)(F)F [BAY K8644, (S)-(−)-BAY K8644] was tested, and the “effect on Cav2.2 at high concentration” value (human Cav2.2/β3/α2δ1 [1]; concentrations ≥10 μM) was “nonspecific inhibition”, the “effect on Cav2.1 at high concentration” value (human Cav2.1/β4/α2δ1; concentrations ≥10 μM) was “nonspecific inhibition” and the “effect on Cav1.2 currents” value (human Cav1.2/β2/α2δ1; 0.3 μM, test pulse 10 mV, holding −90 mV, 60-s CP to −50 mV) was “potentiated”. The “effect on Cav1.2 at high concentration” value (human Cav1.2/β2/α2δ1; concentrations ≥10 μM) was “nonspecific inhibition”, the “extent of potentiation of Cav1.2 channels” value (human Cav1.2/β2/α2δ1; dose–response, Fig. 2B) was “twofold potentiation” and the “effect on Cav3.2 at high concentration” value (human Cav3.2; concentrations ≥10 μM) was “nonspecific inhibition”.

For COCC(=O)O[C@]1(CCN(C)CCCc2nc3ccccc3[nH]2)CCc2cc(F)ccc2[C@@H]1C(C)C [Mibefradil, mibefradil], the “potency of inhibition at TP30 compared with TP1” value (human Cav2.2/β3/α2δ1 [2]) was “about seven times more potent”, the “Cav2.2 blocking characteristics in multiple mode assay” value (human Cav2.2/β3/α2δ1 [1]; current traces Fig. 5B, 10 μM mibefradil, 30 μM verapamil) was “use-dependent, but not inactivation-dependent block augmentation” and the “potency of use-dependent block in Cav3.2 versus Cav1.2” value (human Cav3.2; use-dependent block, multiple mode assay) was “fourfold more potent”.

With COC(=O)C1=C(C)NC(C)=C(C(=O)OC)C1c1ccccc1[N+](=O)[O-] [Nifedipine, nifedipine] the “sensitivity of Cav3.2 channels” value (human Cav3.2; concentrations up to 3 μM (not shown)) was “insensitive”.

O=c1[nH]c2ccccc2n1C1CCN(CCCC(c2ccc(F)cc2)c2ccc(F)cc2)CC1 [Pimozide, pimozide] was tested, and the IC50 (human Cav2.2/β3/α2δ1 [1]) was over 30 µM and the IC50 (human Cav2.1/β4/α2δ1) was over 30 µM.
